Measured values reported in US10323018B2 (Millennium Pharmaceuticals, Inc., priority 2015, dated 2019).

Legend:
PC3 cells = test: PC3 growth inhibition (Cell-titer glo, 72 hours); format: cell-based; details: Homo sapiens, PC-3, 72 h, read-out: Percent Viability, PC3 cells, compound concentration 1.667 μM, 72 hours
Procedure: The invention also provides compounds that inhibit cell growth. The ability of a compound of the invention to inhibit the growth of cells can be measured using a variety of methods known in the art. For example, the ability of a compound of the invention to inhibit the growth of PC3 cells can be measured. PC3 cells can be plated and incubated overnight under CO2. For each measurement, a compound of the invention (or vehicle e.g., DMSO) can be diluted with AIM serum free medium and added to the cell plate. The cell plate can then be incubated for 72 h under CO2. Cell-titer glo solution can be added and the plates can be incubated protected from light and the amount of luminescences can be measured. Concentration response curves can be generated by calculating the luminescence increase in test compound treated samples relative to DMSO-treated controls. Percentage remaining viability values at a single concentration can be measured. Growth inhibition (GI50) or cell viability (LD50) values can be determined from thoses curves. In one embodiment, compounds of the invention have a percent viability in PC3 line @ 1.667 uM of <1%. In one embodiment, compounds of the invention have a percent viability in PC3 line @ 1.667 uM of <2%. In one embodiment, compounds of the invention have a percent viability in PC3 line @ 1.667 uM of <3%. In one embodiment, compounds of the invention have a percent viability in PC3 line @ 1.667 uM of <4%. In one embodiment, compounds of the invention have a percent viability in PC3 line @ 1.667 uM of <5%. In one embodiment, compounds of the invention have a percent viability in PC3 line @ 1.667 uM of <10%. In one embodiment, compounds of the invention have a percent viability in PC3 line @ 1.667 uM of <50%.
To measure PC3 growth inhibition, PC3 cells that were maintained in RPMI1640 growth medium (Life Technologies; Cat. No. 11875) at 37° C. under 5% CO2 are trypsinized and diluted at a density of 8×10^4 cells/ml, 25 ul per well of cells and plated in 384-well black tissue culture plate. The cells are incubated overnight at 37° C. under 5% CO2. For each measurement, a test compound or vehicle DMSO control is diluted with AIM serum free medium and added to the cell plate. The cell plate is incubated for 72 hours at 37° C. under 5% CO2. 25 μl Cell-titer glo solution (Promega; Cat. No. G8462) is added and the cell plates are incubated for 10 minutes protected from light. The luminescence is measured. Concentration response curves are generated by calculating the luminescence increase in test compound-treated samples relative to DMSO-treated controls. Percentage remaining viability values at a single concentration, growth inhibition (GI50) or cell viability (LD50) values are determined from those curves. One skilled in the art will appreciate that these values are subject to experimental variation.

hNAMPT protein = hNAMPT protein (Homo sapiens (Human), UniProt P43490); test: NAMPT enzyme assay (TR-FRET/HTRF with BodiPY ligand); format: binding; details: for inhibition at 1 µM: NAMPT inhibition at compound concentration 1 μM, read-out: Percent Inhibition; for IC50: NAMPT inhibition, IC50 range class
Sequence of hNAMPT protein (P43490 whole entry): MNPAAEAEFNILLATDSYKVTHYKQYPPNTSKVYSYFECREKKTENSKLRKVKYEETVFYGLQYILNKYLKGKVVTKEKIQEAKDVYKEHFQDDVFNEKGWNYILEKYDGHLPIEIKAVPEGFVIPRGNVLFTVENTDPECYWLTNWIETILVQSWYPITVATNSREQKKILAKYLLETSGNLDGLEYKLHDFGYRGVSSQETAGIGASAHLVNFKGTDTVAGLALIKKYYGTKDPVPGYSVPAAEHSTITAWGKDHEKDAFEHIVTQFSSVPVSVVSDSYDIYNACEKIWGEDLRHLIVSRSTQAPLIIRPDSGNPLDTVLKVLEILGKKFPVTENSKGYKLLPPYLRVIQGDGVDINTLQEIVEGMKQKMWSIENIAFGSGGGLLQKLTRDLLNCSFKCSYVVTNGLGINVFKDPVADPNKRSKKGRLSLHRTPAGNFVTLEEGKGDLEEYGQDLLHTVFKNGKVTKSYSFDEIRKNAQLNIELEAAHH
Source text: As discussed above, the invention provides compounds that are useful as inhibitors of the enzyme NAMPT. The NAMPT inhibition of a compound of the invention can be measured using a variety of methods known in the art. For example, the ability of a compound of the invention to inhibit NAMPT enzyme activity can be measured using a homogeneous time resolved fluorescence (HTRF) assay using hNAMPT protein and anti 6His-Tb in buffer treated with a compound of the invention (or control e.g., DMSO) and BodiPY ligand. The TR-FRET signal can be measured using a high throughput microplate reader (e.g., Pherastar). Excitation can be carried out at 320 nm. The percent inhibition value at a single concentration of compound of the invention can be calculated relative to a control treated sample. A concentration response curve can be generated for each compound of the invention and the curve fitted to generate an IC50 value. […] To measure the inhibition of NAMPT activity hNAMPT protein stock and anti 6His-Tb (Cisbio; Cat. No. […]TLB) is diluted to 3× final concentration with assay buffer (50 mM Tris-HCl (pH 7.5), 1 mM DTT, 100 mM NaCl, 10 mM MgCl2, 0.005% Tween 20). To this solution is added a test compound or vehicle control (DMSO) and BodiPY ligand (structure below). The plate is shaken for 1-2 min sealed and incubated for 1 h at rt in the dark. The TR-FRET signal is measured using BMG Pherastar (Lanthascreen protocol on BMG Pherastar). Excitation was carried out at 320 nm, and the ratio of emission of BodiPY (520 nm) to terbium (486 nm) was determined. Concentration response curves are generated by calculating the excitation increase in test compound-treated samples relative to DMSO-treated controls. For the assay method described above, test compound percent inhibition values at a single concentration are calculated relative to control (DMSO) treated samples. Compound concentration response curves are fitted to generate IC50 values from those curves. One skilled in the art will appreciate that these values generated either as percentage inhibition at a single concentration or IC50 values are subject to experimental variation.

SMILES	viability at 1.667 µM (PC3 cells)	inhibition at 1 µM (hNAMPT protein)	IC50 (hNAMPT protein)
CCOc1cc(-c2ccnc(OC)c2)nc2cc(C(=O)NCCc3c[nH]nc3C)ccc12 [Compound I-100, 4-ethoxy-2-(2-methoxypyridin-4-yl)-N-[2-(3-methyl-1H-pyrazol-4-yl)ethyl]quinoline-7-carboxamide]	2%	92%	50 to 100 nM
CCOc1nc(-c2ccc(Cl)s2)nc2cc(C(=O)NCc3ccc4nccn4c3)ccc12 [Compound I-28, 2-(5-chloro-2-thienyl)-4-ethoxy-N-(imidazo[1,2-a]pyridin-6-ylmethyl)quinazoline-7-carboxamide]	1%	99%	< 10 nM
CCOc1cc(-c2ccc(F)cc2)nc2cc(C(=O)NCCCc3ccnnc3)ccc12 [Compound I-45, 4-ethoxy-2-(4-fluorophenyl)-N-[3-(pyridazin-4-yl)propyl]quinoline-7-carboxamide]	8%	100%	< 10 nM
CCOc1cc(-c2cccnc2OC)nc2cc(C(=O)NCCc3c[nH]nc3C)ccc12 [Compound I-144, 4-ethoxy-2-(2-methoxypyridin-3-yl)-N-[2-(3-methyl-1H-pyrazol-4-yl)ethyl]quinoline-7-carboxamide]	2%	94%	10 to 50 nM
CCCc1nc(-c2ccc(F)cc2)nc2cc(C(=O)NCCCc3ncc[nH]3)ccc12 [Compound I-16, 2-(4-fluorophenyl)-N-[3-(1H-imidazol-2-yl)propyl]-4-propylquinazoline-7-carboxamide]	0%	100%	< 10 nM
CCCc1cc(-c2ccc(F)cc2)nc2cc(C(=O)NCCc3c[nH]nc3C)ccc12 [Compound I-152, 2-(4-fluorophenyl)-N-[2-(3-methyl-1H-pyrazol-4-yl)ethyl]-4-propylquinoline-7-carboxamide]	2%	84%	> 100 nM
CCOc1cc(-c2cnc(Cl)cc2C)nc2cc(C(=O)NCCCc3nnc[nH]3)ccc12 [Compound I-211, 2-(6-chloro-4-methylpyridin-3-yl)-4-ethoxy-N-[3-(4H-1,2,4-triazol-3-yl)propyl]quinoline-7-carboxamide]	3%	50%	> 100 nM
CCCc1nc(-c2ccc(Cl)cc2)nc2cc(C(=O)N[C@H]3C[C@@H](c4ncc[nH]4)C3)ccc12 [Compound I-3, 2-(4-Chlorophenyl)-N-[cis-3-(1H-imidazol-2-yl)cyclobutyl]-4-propyl-quinazoline-7-carboxamide]	2%	94%	10 to 50 nM
CCOc1cc(-c2ccc(C)nc2OC)nc2cc(C(=O)NCCCc3ccn[nH]3)ccc12 [Compound I-104, 4-ethoxy-2-(2-methoxy-6-methylpyridin-3-yl)-N-[3-(1H-pyrazol-5-yl)propyl]quinoline-7-carboxamide]	2%	95%	10 to 50 nM
CCCc1nc(-c2ccc(Cl)cc2)nc2cc(C(=O)NCc3ccc4nccn4c3)ccc12 [Compound I-8, 2-(4-chlorophenyl)-N-(imidazo[1,2-a]pyridin-6-ylmethyl)-4-propylquinazoline-7-carboxamide]	1%	98%	< 10 nM
CCOc1cc(-c2cnc(OC)cc2C)nc2cc(C(=O)NCCCc3nnc[nH]3)ccc12 [Compound I-145, 4-ethoxy-2-(6-methoxy-4-methyl-3-pyridyl)-N-[3-(4H-1,2,4-triazol-3-yl)propyl]quinoline-7-carboxamide]	2%	86%	> 100 nM
CCOc1cc(-c2ccncc2OC)nc2cc(C(=O)NCCCc3nnc[nH]3)ccc12 [Compound I-139, 4-ethoxy-2-(3-methoxypyridin-4-yl)-N-[3-(4H-1,2,4-triazol-3-yl)propyl]quinoline-7-carboxamide]	2%	99%	10 to 50 nM
COCCOc1nc(-c2ccc(F)cc2)nc2cc(C(=O)NCCCc3ncc[nH]3)ccc12 [Compound I-37, 2-(4-fluorophenyl)-N-[3-(1H-imidazol-2-yl)propyl]-4-(2-methoxyethoxy)quinazoline-7-carboxamide]	2%	> 99%	< 10 nM
CCOc1c(F)c(-c2ccnc(OC)c2)nc2cc(C(=O)NCCCc3[nH]nnc3C)ccc12 [Compound I-65, 4-ethoxy-3-fluoro-2-(2-methoxypyridin-4-yl)-N-[3-(4-methyl-1H-1,2,3-triazol-5-yl)propyl]quinoline-7-carboxamide]	1%	91%	50 to 100 nM
COc1cc(-c2nc(-c3ccc(F)cc3)nc3cc(C(=O)NCCCc4nnc[nH]4)ccc23)ccn1 [Compound I-197, 2-(4-fluorophenyl)-4-(2-methoxypyridin-4-yl)-N-[3-(4H-1,2,4-triazol-3-yl)propyl]quinazoline-7-carboxamide]	3%	97%	10 to 50 nM
CCOc1cc(-c2ccc(=O)n(C)c2)nc2cc(C(=O)NCCCc3cc[nH]n3)ccc12 [Compound I-123, 4-ethoxy-2-(1-methyl-6-oxo-1,6-dihydropyridin-3-yl)-N-[3-(1H-pyrazol-3-yl)propyl]quinoline-7-carboxamide]	2%	> 99%	10 to 50 nM
CC[C@@H](F)c1nc(-c2ccc(Cl)cc2)nc2cc(C(=O)NCCCc3ncc[nH]3)ccc12 (stereo in doubt) [Compound I-72, 2-(4-chlorophenyl)-4-[1-fluoropropyl]-N-[3-(1H-imidazol-2-yl)propyl]quinazoline-7-carboxamide]	1%	98%	< 10 nM
CCCc1cc(OCC)c2ccc(C(=O)NCCCc3ncc[nH]3)cc2n1 [Compound I-226, N-(3-(1H-imidazol-2-yl)propyl)-4-ethoxy-2-propylquinoline-7-carboxamide]	14%	86%	> 100 nM
CCOc1cc(-c2ccc(F)cc2)nc2cc(C(=O)NCCc3cc(N)[nH]n3)ccc12 [Compound I-134, N-[2-(5-amino-1H-pyrazol-3-yl)ethyl]-4-ethoxy-2-(4-fluorophenyl)quinoline-7-carboxamide]	3%	93%	10 to 50 nM
CCOc1cc(-c2ccc(F)cc2)nc2cc(C(=O)NCCCc3c[nH]nc3C)ccc12 [Compound I-201, 4-ethoxy-2-(4-fluorophenyl)-N-[3-(3-methyl-1H-pyrazol-4-yl)propyl]quinoline-7-carboxamide]	3%	98%	< 10 nM
